Results on four molecules are retold here after PMC13040083, “Single-molecule dynamics reveal ATP binding alone powers substrate translocation by an ABC transporter” (Nature Communications, 2026).

Assay [1] relates to TmrA^EQB (TmrA^E523QB). Kind of assay: Single-molecule (smFRET) peptide translocation by slow-turnover TmrA^EQB in liposomes. Conditions: 10 µM valinomycin, K+ buffer, Mg-ATP 3 mM, peptide 200 µM, 45 °C 5 min; and control at 30 °C.
Protocol: For single-molecule experiments, a protein-to-lipid ratio (w/w) of 1:10,000 and an OppA-to-liposome ratio of 0.2 molecules per liposome were used. For ensemble transport assays, a protein-to-lipid ratio (w/w) of 1:20 was applied. Extruded LUVs were destabilized by incubation with 0.3% (v/v) Triton X-100 (TX-100) for 30 min. TmrAB and OppA were then added to the detergent-destabilized liposomes and incubated for 30 min at 8 °C under gentle rotation. Detergent removal was performed gradually using sequential additions of polystyrene Bio-Beads SM-2 (Bio-Rad): two incubations at 40 mg/mL (1 h and overnight), followed by two incubations at 80 mg/mL (1 h each). […]
Single-molecule FRET experiments were conducted using a flow chamber system to immobilize liposomes and transporters in an uptake-competent orientation. […] Laser powers were set to 0.8 mW/cm^2 (532 nm excitation) and 0.9 mW/cm^2 (640 nm excitation), with data recorded in 1-min intervals.
Single-molecule FRET (smFRET) measurements were performed using ALEX, allowing the assignment of detected photons based on both excitation and emission wavelength. […] From these signals, FRET efficiency (E) and stoichiometry (S) were calculated and FRET traces extracted using NanoImager software (ONI Nanoimager Development Build) and analyzed with deepFRET[56]. […] Dynamic smFRET traces were further analyzed via HMM by deepFRET. […]
Assay [2] concerns TmrAB^WT. Nature of the assay: LC-MS-based peptide transport assay. Conditions: Mg-ATP 3 mM, ATP regeneration system, 45 °C 45 min, n = 3 technical replicates. Type of assay: biochemical, Thermus thermophilus.
Protocol: For single-molecule experiments, a protein-to-lipid ratio (w/w) of 1:10,000 and an OppA-to-liposome ratio of 0.2 molecules per liposome were used. For ensemble transport assays, a protein-to-lipid ratio (w/w) of 1:20 was applied. Extruded LUVs were destabilized by incubation with 0.3% (v/v) Triton X-100 (TX-100) for 30 min. TmrAB and OppA were then added to the detergent-destabilized liposomes and incubated for 30 min at 8 °C under gentle rotation. Detergent removal was performed gradually using sequential additions of polystyrene Bio-Beads SM-2 (Bio-Rad): two incubations at 40 mg/mL (1 h and overnight), followed by two incubations at 80 mg/mL (1 h each). Finally, proteoliposomes were harvested by ultracentrifugation (100,000 × g, 30 min, 4 °C) and resuspended in the appropriate buffer.
Reactions were stopped with ice-cold liposome buffer containing 10 mM EDTA. Samples were ultracentrifuged (450,000 × g, 30 min, 4 °C), and pellets were resuspended in 200 µL of 100 mM Na2CO3 (pH 11.5), followed by a second ultracentrifugation under the same conditions. […] A final ultracentrifugation (450,000 × g, 1.5 h, 4 °C) was performed before LC-MS analysis using a Waters BioAccord system (UNIFY 3.1.0). […] Quantification was based on total ion chromatogram peak areas at the peptide-specific retention times.
Assay [3] relates to TmrAB^WT. Nature of the assay: Filter plate-based peptide transport assay. Type of assay: biochemical, Thermus thermophilus. Conditions: C4F 10 µM.
Assay [4] concerns TmrAB^WT. Nature of the assay: Single-liposome transport monitored by flow cytometry. Type of assay: biochemical, Thermus thermophilus. Conditions: flow cytometry single-liposome assay.

On to `CC(C)[C@@H]1NC(=O)[C@H](C)OC(=O)[C@@H](C(C)C)NC(=O)[C@@H](C(C)C)OC(=O)[C@H](C(C)C)NC(=O)[C@H](C)OC(=O)[C@@H](C(C)C)NC(=O)[C@@H](C(C)C)OC(=O)[C@H](C(C)C)NC(=O)[C@H](C)OC(=O)[C@@H](C(C)C)NC(=O)[C@@H](C(C)C)OC1=O` [valinomycin], for which the “effect of dissipating membrane potential on translocation” value in assay [1] was “excluded effects from a transmembrane potential”.

As for GIINTLEEL [9mer peptide], the “ATP-dependent transport, in words” value in assay [2] is “signiﬁcant ATP-dependent transport”.

On to “RRYC(Fluorescein)KSTEL [C4F, RRYC^FLKSTEL, fluorescein-labeled peptide RRYC^FLKSTEL]”, for which the “peptide transport, in words” value in assay [3] (ATP-EDTA 3 mM) was “no transport above ADP-EDTA (3 mM) background”; in assay [3] (Mg-ATP 3 mM), “robust transport”. The “ATP-dependent transport, in words” value in assay [2] was “signiﬁcant ATP-dependent transport”.

B1: Nb9F10: conformation-independent nanobody tethered via PEG11-biotin (antibody, V domains shown)
VH: QLQLVESGGGLVQPGDSLRLSCAVSGSALDYNAIGWFRQAPGKEREGVACISKITGNTAYADCVKGRFTISRDNAKNTVHLQMNSLKPEDTAVYYCATVTAVLLPGRCVPGKYWGQGTPVTVSS
For B1, the “effect of nanobody binding on TmrAB transport activity” value in assay [4] was “did not alter transport activity”.
